{
  "source": "patent EP0574781A2",
  "about": "“2-Amino-5-heterocyclic-substituted-1,4-benzodiazepines and their use in the treatment of aids” (priority 1992, dated 1993)",
  "data": [
    {"target": "T1, HIV-TAT (Human immunodeficiency virus type 1 group M subtype B, UniProt P04608)", "T1 construct": "expressed in transfected cells; host or cells: COS cells", "T1 sequence (P04608 whole entry)": "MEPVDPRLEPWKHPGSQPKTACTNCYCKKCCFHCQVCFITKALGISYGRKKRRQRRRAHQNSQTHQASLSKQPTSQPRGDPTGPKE", "test": "anti-HIV-TAT assay (SeAP reporter under HIV-LTR versus RSV-LTR in transfected COS cells)", "format": "cell-based", "details": "specific inhibition 100 [(1-A/B) - (1-C/D)] of SeAP under HIV-LTR versus RSV-LTR, concentrations tested 1 to 50 /1.M, compound added 24 hours post transfection, assayed 48 hours after addition, average of at least three tests", "procedure": "The compounds of formula I were tested for anti-HIV-TAT activity in an assay described in US Patent No. 5070010, comprising the following steps: • (a) putting both the expression of the Secreted Alkaline Phosphatase (SeAP) gene and the viral trasactivator TAT gene under the control of the HIV promoter LTR responsive to the action of the HIV transactivator TAT; • (b) transfecting cultured mammalian cells with plasmids which contain the gene constructs of (a) above and cause cellular production of the trasactivating factor TAT ad SeAP; • (c) adding the agent to be tested, here the compounds of formula I; and determining the amount of SeAP produced, by measuring SeAP enzymatic activity, whereby inhibition of SeAP production correlates with the anti-TAT inhibition activity.\nIn this assay, the inhibition of SeAP positively correlates with anti-TAT activity. The greater the ability of a agent to inhibit SeAP, the greater is its anti-TAT activity.\nSpecifically, with respect to the results reported below, the anti-HIV-TAT assay was run as follows: • At 24 hours post transfection 1, 10 and 50 /1.M of a test compound of formula I was added to the culture media of COS cells transfected with two plasmids, one containing the reporter gene which codes for SeAP under control of HIV-LTR, and the other containing the HIV-TAT gene also under control of HIV-LTR. […]\nThe anti-HIV-TAT activities of the test compounds were determined by measuring the amount of alkaline phosphatase in the supernatant media of cultures of cells in which SeAP gene expression was under the control of the HIV LTR promoter. The specific inhibitory activities of the test compounds were calculated according to the formula: 100 [(1-A/B) - (1-C/D)] where A and B are the alkaline phosphatase activites produced by HIV-LTR/SeAP in the presence and absence, respectively, of test compound, and C and D are the alkaline phosphatase activities produced by RSV-LTR/SeAP in the presence and absence, respectively, of test compound. […]", "values": [
      {"molecule": "CNC1=Nc2ccc(Cl)cc2C(c2cn[nH]c2)=NC1", "note": "[Example 2, 7-chloro-N-methyl-5-(1 H-pyrazol-4-yl)-3H-1,4-benzodiazepin-2-amine]", "Anti-HIV-TAT activity": "High/Medium"},
      {"molecule": "CNC1=Nc2ccc(Cl)cc2C(c2cnn[nH]2)=NC1", "note": "[Example 1, 7-chloro-N-methyl-5-(1H-1,2,3-triazol-5-yl)3H-1,4-benzodiazepin-2-amine]", "Anti-HIV-TAT activity": "High (High is >60% inhibition)"},
      {"molecule": "CNC1=Nc2ccc(C)cc2C(c2cn[nH]c2)=NC1", "note": "[Example 3, N,7-Dimethyl-5-(1 H-pyrazol-4-yl)-3H-1,4-benzodiazepin-2-amine]", "Anti-HIV-TAT activity": "High/Medium"}
    ]}
  ]
}
